Reference: patent publication US20210214683A1, “METHODS FOR ISOLATING TUMOR-SPECIFIC IMMUNE CELLS FROM A SUBJECT FOR ADOPTIVE CELL THERAPY AND CANCER VACCINES” (CRITITECH, INC., priority 2018, published 2021)
Values joined by “and” are separate entries in the source; they are usually repeats but may differ in a detail not shown here. Equal values may be shown once. Marks after values point to notes of the source that are not given here.

Columns and labels:
[1] = system: human renal cell adenocarcinoma (786-O cell line); test: Rat 786-O xenograft: H&E and immunohistochemical evaluation (viable carcinoma size, necrosis, CD11b/CD68 infiltrate, TLS); assay type: in vivo, Sprague-Dawley Rag2; Il2rg null (SRG) rat
Description: Tissue Collection: Primary Tumor (Inoculation site)—A final tumor measurement was taken prior to excision. Tumors were weighed after excision. Approximately ½ of each tumor (based on visual assessment) was flash frozen in 2-methylbutane on dry ice, the tumor piece was weighed when possible before it is flash frozen. The remaining was fixed in 10% neutral buffered formalin. Tumors were also collected from animals not reaching enrollment volume. Secondary Tumors—Any organ with visible tumors were collected and fixed in 10% neutral buffered formalin. Formalin fixed tissues were stored at room temperature. Frozen tissues were stored at −80° C. All tissue was stored for up to 3 months. Pictures of all tumors; primary and secondary if present, were taken.
Microscopic Examination: Tissues fixed with 10% NBF were embedded in paraffin. Each tumor was cut into 2-3 pieces and embedded and sectioned together.

[2] = system: UM-UC-3 bladder cancer cell line; test: Human bladder cancer (UM-UC-3) mouse xenograft study: tumor volume; assay type: in vivo, Hsd:Athymic Nude-Foxn1nu nude mice; conditions: Docetaxel IV 30 mg/kg, 3 cycles
Description: (§1) Tumor volume was determined with calipers. […] Animals were weighed 2×/week.
At day 18 after tumor implant, when average tumor size was between 50-325 mm^3, animals were sorted into five groups with equal average tumor sizes and were treated as shown in Table 25 below.
The second treatments (2nd cycle) occurred 7 days following first treatment (1st cycle) and third treatments (3rd cycle) occurred 14 days following the first treatment. The docetaxel solution IV was administered via the tail vein.
Vehicle (Control): Diluted 1 ml of the 1% Polysorbate 80/8% Ethanol in normal saline (0.9% Sodium Chloride for Injection) reconstitution solution with 1.5 mL of normal saline (0.9% Sodium Chloride for Injection, USP). […] Vigorously hand shook the vial with inversions for 1 minute. […] Allowed the suspension to sit undisturbed for at least 5 minutes to reduce entrapped air and foam. […] Vortexed to mix.

[3] = UM-UC-3 mouse xenograft study: body weight and peripheral neuropathy; assay type: in vivo, Hsd:Athymic Nude-Foxn1nu nude mice; conditions: Docetaxel IV 3 cycles
Description: as §1

[4] = system: UM-UC-3 bladder cancer cell line; test: UM-UC-3 mouse xenograft study: H&E histopathology (viable carcinoma size on slide, necrosis, TLS); assay type: in vivo, Hsd:Athymic Nude-Foxn1nu nude mice
[5] = system: UM-UC-3 bladder cancer cell line; test: UM-UC-3 mouse xenograft study: immunohistochemistry (F4/80, CD68 macrophage infiltrate, CD45R); assay type: in vivo, Hsd:Athymic Nude-Foxn1nu nude mice; conditions: IV Docetaxel 3 cycles
Renca tumor cells [6] = test: Renca syngeneic xenograft study: primary tumor volume (groups 1-7); assay type: in vivo, female BALB/c mice; conditions: IV docetaxel Day 1 (10 mg/kg) and Day 11 (5 mg/kg)
Description: (§2) The schedule in Table 39 was followed.
All treatments were initiated on the same day.
(§3) Cell Injection Volume: 0.1 mL/mouse. Age at Start Date: 8 to 12 weeks. […] Body Weight: 5/2 then tiwk to end. Caliper Measurement: tiwk to end. Double caliper measurements were performed for Groups 8-10. […] The group was not euthanized and recovery was allowed.
(§4) Endpoints: Groups 1-7: Endpoint TGI. Animals were monitored as a group.

Renca tumor cells [7] = test: Renca syngeneic xenograft study: untreated secondary tumor growth (groups 8-10); assay type: in vivo, female BALB/c mice; conditions: IV docetaxel; second Renca injection day 15
Description: as §2, §3, §4

[8] = system: immune cells in the blood; test: Renca syngeneic xenograft study: flow cytometry of blood (CD45+, CD4+, CD8+, Treg, MDSC, M1, M2); assay type: in vivo, female BALB/c mice; conditions: IV Docetaxel, individual animals
Description: Blood Collection: Collected full volume blood by terminal cardiac puncture under isoflurane anesthesia. Processed blood for: Whole Blood: anti-coagulant—K2EDTA, preservation—Cooled 4° C., shipping condition—4° C. (wet ice). Retained at CRL-NC for flow cytometry. See Flow panel in Table 40 below.
(§5) Peripheral blood and tumor tissue were collected for analysis via flow cytometry. Cell types analyzed included T-Cells: CD4+, CD8+ (Tumor Suppression); Treg (Tumor Promotion); M1 Macrophages (Tumor Suppression); M2 Macrophages (Tumor Promotion); and M2 Macrophages (Tumor Promotion).

[9] = system: immune cells in tumor tissue; test: Renca syngeneic xenograft study: flow cytometry of tumor tissue; assay type: in vivo, female BALB/c mice; conditions: IV docetaxel, individual animal
Description: Organ Collection: Tumor (divide into 2 parts). […] Sent to laboratory for IHC staining. Part 2: preservation—processed to single cell suspension, shipping condition—4° C. (wet ice). Retained at CRL-NC for flow cytometry. See Flow panel in Table 40 below. Tumor preservation for early euthanasia in Groups 2-10: Excised tumor and surrounding area from the mammary fat pad area (cranial) to just past tumor (caudal). The region included the inguinal lymph node. Sectioned this sample every 4 mm from the cranial to caudal end and enclosed in separate cassettes labeled in order.
as §5

[10] = IV Docetaxel 3 cycles, 2 animals

CC(=O)O[C@@]12CO[C@@H]1C[C@H](O)[C@@]1(C)C(=O)[C@H](O)C3=C(C)[C@@H](OC(=O)[C@H](O)[C@@H](NC(=O)OC(C)(C)C)c4ccccc4)C[C@@](O)([C@@H](OC(=O)c4ccccc4)[C@H]21)C3(C)C [Doce]
Number of animals with <5% of tissue showing necrosis ([1]; IV Doce, 2 animals): 2 | Number of animals with Mild lymphohistiocytic infiltrate density ([1]; IV Doce, 2 animals, H/E and CD11b staining, semi quantitative): 2

CC(=O)O[C@@]12CO[C@@H]1C[C@H](O)[C@@]1(C)C(=O)[C@H](O)C3=C(C)[C@@H](OC(=O)[C@H](O)[C@@H](NC(=O)OC(C)(C)C)c4ccccc4)C[C@@](O)([C@@H](OC(=O)c4ccccc4)[C@H]21)C3(C)C [Docetaxel, docetaxel]
efficacy in relation to initial tumor size [2]: somewhat effective at treating small tumors, but not very effective in treating large tumors | tumor volumes over the study (61 days), after an initial decrease [2]: subsequently increased | initial animal weight loss compared with nDoce IT 1, 2, 3 cycles [3]: generally greater | peripheral neuropathy compared with nDoce IT 3 cycles [3]: greater signs of peripheral neuropathy | General histological observations (H&E) ([4]; Docetaxel Solution IV 3 cycles): many viable appearing tumor masses with some macrophage and occasional lymphocytic response along with some tumor necrosis | Maximum size of viable invasive carcinoma on the slide >10 mm (animals) [4, 10]: 2* | Number of animals with 11-50% of tumor showing necrosis [4, 10]: 1 | Number of animals with 50-90% of tumor showing necrosis [4, 10]: 1 | Maximum tumor size on slide (mm) ([4]; IV Docetaxel 3 cycles, individual animals B1, B3): 15 mm and 11 mm | maximum dimension of tumor mass on the slide, individual cases ([4]; Intravenous Docetaxel 3 cycles, 2 cases): 11 mm and 15 mm | geographic tumor cell necrosis, share of the tumor area, individual cases ([4]; Intravenous Docetaxel 3 cycles, cases B1, B3): 11-50% and 50-90% | F4/80 immunohistochemistry observation (FIG. 87) [5]: Very little tumor cell destruction and few scattered mononuclear immune cells among vast number of viable tumor cells | Macrophage infiltrate density: Mild (animals) ([5]; 2 animals, H&E and CD68): 2 | histology compared with the vehicle control (FIG. 93) ([1]; Docetaxel (IV) 3 cycles, female rat): no difference | Number of animals with residual viable carcinoma >10 mm ([1]; IV docetaxel, 2 animals, maximum dimension on slide): 2 | residual viable carcinoma nodules, size on the slide ([1]; both IV docetaxel animals (3 cycles)): greater than 10 mm | tumor volume compared to vehicle (Renca tumor cells [6]): No difference in tumor volume | growth rate of the secondary Renca tumors (Renca tumor cells [7]): did not reduce the growth rate of the secondary Renca tumors | CD45 (% of Live) [8]: 97 % of Live | CD45 Count [8]: 1200000 | MDSC Count [8]: 1000000 | Treg Count [8]: 1300 and 870 | CD8 (% of CD45) [9]: 0.75% and 0.5% and 0.28% and 0.31% (2×) and 0.061% and 0.32% and 0.45% and 0.81% and 0.33% | CD8 Count [9]: 33 and 40 and 26 and 9 and 36 and 270 | CD45 (% of Live) [9]: 73% | Conv CD4 (% of CD45) [9]: 0.44% and 0.16% and 0.58% and 0.62% and 0.59% | Conv CD4 Count [9]: 54 and 93 and 140 and 23 and 50 and 670 | M1 Mac Count [9]: 460 and 700 | M2 Mac (% of CD45) [9]: 28% | MBSC (% of CD45) [9]: 25.1% and 32.8% and 42.5% and 44% and 83.3% and 20% and 70.4% and 37.3% and 10.4% | Treg (% of CD45) [9]: 0.55% and 0.32% and 0.62% and 0.16% and 0.54% and 0.21% and 0.42% and 0.6% | Treg Count [9]: 69 and 44 and 30 and 23 and 17 and 520
